Each structure is given as a SMILES string.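 Dose response: 5 concentrations. Exposure: 48 h. Format: 96-well plates. Endpoint: linear interpolation; highest concentration if not reached. Definition used: TGI = concentration required for complete inhibition of growth.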 Bounds are passed on as bounds.

The test system of the first experiment is MCF7 breast. In words: inhibition of tumour cell growth, NCI panel, 48 h.
On to `CC12CCC(CC1=O)C2(C)CCC(N)=O` (configuration not stated), for which the TGI was greater than 100 µM.
Compound `[N-]=[N+]=Nc1c(C=O)c(=O)n2c3c(cccc13)CCC2` yielded a TGI of 10.6 µM.
Regarding `CC(C)(Br)C(Br)CCC(C)(Br)C(Br)CO` (configuration not stated), the TGI was greater than 10 µM.
Consider `COc1ccc(/C=C2\C(=O)N(C3OC(COC(C)=O)C(OC(C)=O)C(OC(C)=O)C3OC(C)=O)c3ccccc3N=C2N)cc1` (configuration not stated), for which the TGI was greater than 100 µM.
The same measure, in the same setting: the result for `COC12OC3(C4OC41)C(C(=O)O[C@H]3CO[Si](C)(C)C(C)(C)C)C2C(=O)Oc1ccccc1` (some centres not stated) reads greater than 100 µM; that for `COc1ccc(OCc2nc3cc(C(F)(F)F)ccc3nc2-c2ccccc2)cc1`, greater than 100 µM; that for `N=c1oc2cc(O)ccc2cc1C(=O)NCc1ccccc1`, greater than 100 µM.
`COc1cc(/C=C/C(=O)c2ccc(NS(=O)(=O)c3cc([N+](=O)[O-])ccc3C)cc2)cc(OC)c1OC`: the TGI worked out at 9.72 µM.
Same read-out and setting: the result for `O=C(Cc1ccccc1)NNc1nc(NNC(=O)c2ccncc2)nc(Nc2ccc([N+](=O)[O-])cc2)n1` reads greater than 10 µM; that for `NC(=O)N/N=C1\CCCCc2ccccc21`, greater than 10 µM; that for `CSc1ncc2c(C#N)c3sc4ccccc4n3c(=O)c2n1`, greater than 100 µM.
In turn, `CCOC(=O)c1ccc(N=C2C(=S)N(c3ccc(C(=O)OCC)cc3)C(=N)N2/N=C/c2ccccc2)cc1` showed a TGI of 28.5 µM.

A further experiment deals with MDA-MB-231 breast. In words: inhibition of tumour cell growth, NCI panel, 48 h.
Turning to `COc1ccc2c(C)cc(N/N=C(\C)C=O)nc2c1`, the TGI worked out at 24 µM.
`O=C(c1cccc2ccccc12)C1(Br)S(=O)(=O)OCCOS1(=O)=O` came in with a TGI greater than 100 µM.
In the case of `O=C(/C=C/c1csc(-c2ccccc2)n1)NCc1ccc(C(=O)NCCc2ccccc2)cc1`, the TGI is 55.6 µM.
Same read-out and setting: for `CC12CCC(CC1=O)C2(C)CCC(N)=O` (configuration not stated) the value was greater than 100 µM; for `[N-]=[N+]=Nc1c(C=O)c(=O)n2c3c(cccc13)CCC2`, 32.1 µM.
For `CC(C)(Br)C(Br)CCC(C)(Br)C(Br)CO` (configuration not stated), the TGI was greater than 10 µM.
With `COc1ccc(/C=C2\C(=O)N(C3OC(COC(C)=O)C(OC(C)=O)C(OC(C)=O)C3OC(C)=O)c3ccccc3N=C2N)cc1` (configuration not stated), the TGI is greater than 100 µM.
As to `COC12OC3(C4OC41)C(C(=O)O[C@H]3CO[Si](C)(C)C(C)(C)C)C2C(=O)Oc1ccccc1` (some centres not stated), the TGI is greater than 100 µM.
As to `COc1ccc(OCc2nc3cc(C(F)(F)F)ccc3nc2-c2ccccc2)cc1`, the TGI was greater than 100 µM.
The same measure, in the same setting: the result for `N=c1oc2cc(O)ccc2cc1C(=O)NCc1ccccc1` reads 65.5 µM; that for `COc1cc(/C=C/C(=O)c2ccc(NS(=O)(=O)c3cc([N+](=O)[O-])ccc3C)cc2)cc(OC)c1OC`, 7.39 µM.
In turn, `O=C(Cc1ccccc1)NNc1nc(NNC(=O)c2ccncc2)nc(Nc2ccc([N+](=O)[O-])cc2)n1` came in with a TGI greater than 10 µM.
On the same count and under the same terms, the result for `NC(=O)N/N=C1\CCCCc2ccccc21` reads greater than 10 µM; that for `CSc1ncc2c(C#N)c3sc4ccccc4n3c(=O)c2n1`, greater than 100 µM.
For the compound `CCOC(=O)c1ccc(N=C2C(=S)N(c3ccc(C(=O)OCC)cc3)C(=N)N2/N=C/c2ccccc2)cc1`, the TGI was 32.6 µM.

The subject of another experiment is MDA-N. Put plainly: inhibition of tumour cell growth, NCI panel, 48 h.
As to `COc1ccc2c(C)cc(N/N=C(\C)C=O)nc2c1`, the TGI is 28.6 µM.
Compound `O=C(c1cccc2ccccc12)C1(Br)S(=O)(=O)OCCOS1(=O)=O` came in with a TGI greater than 100 µM.
For `O=C(/C=C/c1csc(-c2ccccc2)n1)NCc1ccc(C(=O)NCCc2ccccc2)cc1`, the TGI is greater than 100 µM.
As for `CC12CCC(CC1=O)C2(C)CCC(N)=O` (configuration not stated), the TGI was greater than 100 µM.
Same read-out and setting: the result for `[N-]=[N+]=Nc1c(C=O)c(=O)n2c3c(cccc13)CCC2` reads 15.3 µM.
Same read-out and setting: for `CC(C)(Br)C(Br)CCC(C)(Br)C(Br)CO` (configuration not stated) the value was greater than 10 µM; for `COc1ccc(/C=C2\C(=O)N(C3OC(COC(C)=O)C(OC(C)=O)C(OC(C)=O)C3OC(C)=O)c3ccccc3N=C2N)cc1` (configuration not stated), 26 µM.
The compound `COC12OC3(C4OC41)C(C(=O)O[C@H]3CO[Si](C)(C)C(C)(C)C)C2C(=O)Oc1ccccc1` (some centres not stated) registered a TGI greater than 100 µM.
As to `COc1ccc(OCc2nc3cc(C(F)(F)F)ccc3nc2-c2ccccc2)cc1`, the TGI is greater than 100 µM.
Turning to `N=c1oc2cc(O)ccc2cc1C(=O)NCc1ccccc1`, the TGI worked out at 49.7 µM.
As to `COc1cc(/C=C/C(=O)c2ccc(NS(=O)(=O)c3cc([N+](=O)[O-])ccc3C)cc2)cc(OC)c1OC`, the TGI came to 13 µM.
Take `O=C(Cc1ccccc1)NNc1nc(NNC(=O)c2ccncc2)nc(Nc2ccc([N+](=O)[O-])cc2)n1`: the TGI is greater than 10 µM.
In turn, `NC(=O)N/N=C1\CCCCc2ccccc21` registered a TGI greater than 10 µM.
`CSc1ncc2c(C#N)c3sc4ccccc4n3c(=O)c2n1` gave a TGI greater than 100 µM.
In the case of `CCOC(=O)c1ccc(N=C2C(=S)N(c3ccc(C(=O)OCC)cc3)C(=N)N2/N=C/c2ccccc2)cc1`, the TGI was 33 µM.

Another experiment concerns NCI-H23 lung. In words: inhibition of tumour cell growth, NCI panel, 48 h.
`COc1ccc2c(C)cc(N/N=C(\C)C=O)nc2c1` had a TGI of 24.8 µM.
As to `O=C(c1cccc2ccccc12)C1(Br)S(=O)(=O)OCCOS1(=O)=O`, the TGI is greater than 100 µM.
The same measure, in the same setting: for `O=C(/C=C/c1csc(-c2ccccc2)n1)NCc1ccc(C(=O)NCCc2ccccc2)cc1` the value was greater than 100 µM; for `CC12CCC(CC1=O)C2(C)CCC(N)=O` (configuration not stated), greater than 100 µM.
With `[N-]=[N+]=Nc1c(C=O)c(=O)n2c3c(cccc13)CCC2`, the TGI came out at 12.2 µM.
The same measure, in the same setting: the result for `CC(C)(Br)C(Br)CCC(C)(Br)C(Br)CO` (configuration not stated) reads greater than 10 µM.
Take `COc1ccc(/C=C2\C(=O)N(C3OC(COC(C)=O)C(OC(C)=O)C(OC(C)=O)C3OC(C)=O)c3ccccc3N=C2N)cc1` (configuration not stated): the TGI came to 59.1 µM.
In turn, `COC12OC3(C4OC41)C(C(=O)O[C@H]3CO[Si](C)(C)C(C)(C)C)C2C(=O)Oc1ccccc1` (some centres not stated) registered a TGI greater than 100 µM.
In turn, `COc1ccc(OCc2nc3cc(C(F)(F)F)ccc3nc2-c2ccccc2)cc1` yielded a TGI greater than 100 µM.
In turn, `N=c1oc2cc(O)ccc2cc1C(=O)NCc1ccccc1` displayed a TGI of 58.7 µM.
The compound `COc1cc(/C=C/C(=O)c2ccc(NS(=O)(=O)c3cc([N+](=O)[O-])ccc3C)cc2)cc(OC)c1OC` returned a TGI of 11 µM.
The same measure, in the same setting: the result for `O=C(Cc1ccccc1)NNc1nc(NNC(=O)c2ccncc2)nc(Nc2ccc([N+](=O)[O-])cc2)n1` reads greater than 10 µM.
On to `NC(=O)N/N=C1\CCCCc2ccccc21`, for which the TGI was greater than 10 µM.
With `CSc1ncc2c(C#N)c3sc4ccccc4n3c(=O)c2n1`, the TGI is greater than 100 µM.

The test system of a further experiment is NCI-H522 lung. In words: inhibition of tumour cell growth, NCI panel, 48 h.
The compound `COc1ccc2c(C)cc(N/N=C(\C)C=O)nc2c1` came in with a TGI of 29.6 µM.
`O=C(/C=C/c1csc(-c2ccccc2)n1)NCc1ccc(C(=O)NCCc2ccccc2)cc1` came in with a TGI greater than 100 µM.
`CC12CCC(CC1=O)C2(C)CCC(N)=O` (configuration not stated): the TGI is greater than 100 µM.
On the same count and under the same terms, the result for `CC(C)(Br)C(Br)CCC(C)(Br)C(Br)CO` (configuration not stated) reads greater than 10 µM.
In the case of `COC12OC3(C4OC41)C(C(=O)O[C@H]3CO[Si](C)(C)C(C)(C)C)C2C(=O)Oc1ccccc1` (some centres not stated), the TGI was greater than 100 µM.
As for `N=c1oc2cc(O)ccc2cc1C(=O)NCc1ccccc1`, the TGI was 39.1 µM.
Compound `O=C(Cc1ccccc1)NNc1nc(NNC(=O)c2ccncc2)nc(Nc2ccc([N+](=O)[O-])cc2)n1` returned a TGI greater than 10 µM.
Compound `NC(=O)N/N=C1\CCCCc2ccccc21` yielded a TGI greater than 10 µM.
`CCOC(=O)c1ccc(N=C2C(=S)N(c3ccc(C(=O)OCC)cc3)C(=N)N2/N=C/c2ccccc2)cc1` registered a TGI of 6.1 µM.

The next experiment has as its system SK-MEL-28 melanoma. In words: inhibition of tumour cell growth, NCI panel, 48 h.
For `COc1ccc2c(C)cc(N/N=C(\C)C=O)nc2c1`, the TGI was 32.4 µM.
`O=C(c1cccc2ccccc12)C1(Br)S(=O)(=O)OCCOS1(=O)=O` came in with a TGI greater than 100 µM.

The values above are taken from PubChem BioAssay (NCI).
